Data on two compounds can be found in patent publication US20210238170A1, “5,5-Difluoro- and 5-Fluoro-5-Methyl-C-Glycoside Derivatives Useful As Dual SGLT1 / SGLT2 Modulators” (Janssen Pharmaceutica NV, priority 2018, published 2021).

The structures appear in SMILES notation.

For one assay, the target named is T1, human SGLT1 (Homo sapiens, UniProt P13866).
T1 construct: expressed in transfected cells
T1 sequence (P13866 1-664): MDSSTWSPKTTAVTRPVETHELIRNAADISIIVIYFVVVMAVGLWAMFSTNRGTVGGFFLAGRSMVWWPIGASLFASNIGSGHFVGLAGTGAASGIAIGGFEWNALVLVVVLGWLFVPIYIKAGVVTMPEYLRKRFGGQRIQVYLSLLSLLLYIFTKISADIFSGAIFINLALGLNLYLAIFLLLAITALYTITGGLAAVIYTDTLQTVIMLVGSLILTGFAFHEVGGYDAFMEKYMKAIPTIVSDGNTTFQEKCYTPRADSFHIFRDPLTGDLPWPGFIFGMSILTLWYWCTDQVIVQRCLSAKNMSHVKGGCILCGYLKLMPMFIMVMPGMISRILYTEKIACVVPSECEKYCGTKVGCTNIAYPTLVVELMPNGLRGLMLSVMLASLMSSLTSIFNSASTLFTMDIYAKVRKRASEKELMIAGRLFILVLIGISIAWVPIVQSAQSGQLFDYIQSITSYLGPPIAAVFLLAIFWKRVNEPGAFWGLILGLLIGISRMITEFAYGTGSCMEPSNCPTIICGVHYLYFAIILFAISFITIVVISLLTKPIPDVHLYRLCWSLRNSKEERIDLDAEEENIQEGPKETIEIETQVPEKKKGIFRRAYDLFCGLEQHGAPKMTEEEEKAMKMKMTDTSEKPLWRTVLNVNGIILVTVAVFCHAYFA
As to the kind of experiment: SGLT1 in vitro assay: Na-dependent 14C-AMG uptake in CHO-K1 cells stably expressing human SGLT1. The settings on record: CHO-K1 cells stably expressing human SGLT1, 14C-AMG uptake; for inhibition at 0.3 µM: read-out: SGLT1 % Inh @ 0.3 μM; for IC50: compounds of formula (I) where R0 is fluoro. Format: cell-based. In outline:
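Sodium-dependent uptake of 14C-α-methyl-glucopyranoside ([…]) over 2 h at 37°C was counted by scintillation in stable human SGLT2- or SGLT1-CHO-K1 lines pretreated with 10 mM Na-butyrate. Compounds at 0.001–10 μM were preincubated for 10 min in pH 7.4 buffer with 137 mM NaCl; output is %-inhibition or IC50.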

Another assay concerns SD rats. As to the kind of experiment: Oral Glucose Tolerance Test (OGTT) in SD rats: blood glucose excursion AUC and urine glucose excretion. As to conditions: mean ± SE; for response vs control in vivo at 1 mg/kg / response vs control in vivo at 10 mg/kg: Rattus norvegicus, 2 h, n = 8, read-out: 120-min Blood Glucose AUC vs Vehicle (%); for Urine Glucose Excretion (g/0-4 hr): n = 8. Format: in vivo, rat. The method, then: Biological Example 2: In Vivo Assay
Oral Glucose Tolerance Test (OGTT) in SD Rats
Overnight fasted SD rats were allocated into vehicle or test compound treatment groups based on their body weights (n=8 in each group). The animals were orally dosed with vehicle or test compound at a volume of 10 ml/kg at 30-minute prior to OGTT. The animals then received an OGTT challenge with 2 g/kg (50% glucose solution at the volume of 4 ml/kg, orally). The animals were immediately transferred into metabolic cages after they were dosed with the glucose. Blood glucose levels were measured at 0 (pre-OGTT), 30, 60, and 120 minutes after OGTT using one-touch Glucometer. Blood glucose excursion AUC (area under the curve of blood glucose) was determined from the blood glucose levels measured at the timepoints.
Table 9 below, presents the measured efficacy of the test compound(s), expressed as the percentage (%) of blood glucose AUC vs that in vehicle group. The data is interpreted such that, the smaller the percentage of blood glucose AUC of compound vs vehicle, the greater the efficacy of the test compound. Urine volume and urine glucose concentrations (tested by using Olympus system with Genzyme diagnostics assay reagent) were measured to determine the urine glucose excretion (UGE) in 4-hr period after OGTT (0-4 hours).

The next assay concerns db/db mice. As to the kind of experiment: SGLT inhibition evaluated in db/db mice: fed blood glucose AUC and 24-hr urine glucose excretion. Format: in vivo, mouse. As to conditions: oral dose 10 mg/kg, mean ± SE, n = 8; for 24-hr Blood Glucose AUC vs Vehicle (%): fed. As to the method: Biological Example 3: In Vivo Assay
SGLT Inhibition Evaluated in db/db Mice
Based on fed blood glucose levels, db/db mice were allocated into either vehicle or test compound treated groups (n=8 in each group). After grouped, the mice were orally dosed with either vehicle or test compound at 0 and 10 mg/kg, in a volume of 10 ml/kg. The mice were then immediately transferred into mouse metabolic cages, after they were dosed. Fed blood glucose levels were determined at multiple timepoints after the animals were treated. Fed blood glucose AUC (area under the curve of blood glucose) was determined from the blood glucose levels measured at the timepoints.
Table 10 below, presents the measured efficacy of the test compound(s), expressed as a percentage (%) of blood glucose AUC vs that in vehicle group. The data is interpreted such that, the smaller the percentage of blood glucose AUC of compound vs vehicle, the greater efficacy of the test compound. Total urine glucose excretion (UGE) over the 24-hr period post treatment was calculated based on urine glucose concentrations and urine volumes at multiple timepoints. Urine glucose was measured using Olympus system with Genzyme diagnostics assay reagent.

As usually defined, the IC50 is the point on the concentration scale where inhibition reaches its midpoint. Turning to `COc1cc(O)c([C@@H]2O[C@H](CO)C(F)(F)[C@H](O)[C@H]2O)cc1Cc1ccc2c(c1)CCCO2` [Compound 44, (2S,3R,4R,6R)-2-(5-(chroman-6-ylmethyl)-2-hydroxy-4-methoxyphenyl)-5,5-difluoro-6-(hydroxymethyl)tetrahydro-2H-pyran-3,4-diol], on human SGLT1, the inhibition at 0.3 µM came to 56.2% and the IC50 stood at 96 nM. Besides, in the assay on SD rats (oral dose 1 mg/kg), the response vs control in vivo at 1 mg/kg was 61.7 ± 2.1% and the “Urine Glucose Excretion (g/0-4 hr)” value is listed as 0.002 ± 0.001 g/0-4 hr. In addition, in the assay with SD rats (oral dose 10 mg/kg), the response vs control in vivo at 10 mg/kg was found to be 39.3 ± 1.7% and the “Urine Glucose Excretion (g/0-4 hr)” value turned out to be 0.2 ± 0.02 g/0-4 hr. Also, in the assay on db/db mice, the “24-hr Blood Glucose AUC vs Vehicle (%)” value is 48.4 ± 3.4% and the “Urine Glucose Excretion (g/24 hr)” value turned out to be 0.55 ± 0.12 g/24 hr.
On to `COc1ccc(Cc2cc([C@@H]3O[C@H](CO)C(F)(F)[C@H](O)[C@H]3O)c(O)cc2Cl)cc1` [Compound 81, (2S,3R,4R,6R)-2-(4-chloro-2-hydroxy-5-(4-methoxybenzyl)phenyl)-5,5-difluoro-6-(hydroxymethyl)-tetrahydro-2H-pyran-3,4-diol], for which, at human SGLT1, the inhibition at 0.3 µM came out at 76.6% and 34 nM corresponded to half-maximal inhibition (IC50). In addition, in the assay on SD rats (oral dose 1 mg/kg), the response vs control in vivo at 1 mg/kg was determined as 77.5 ± 2.4% and the “Urine Glucose Excretion (g/0-4 hr)” value is reported as 0.099 ± 0.037 g/0-4 hr. Further, in the assay with SD rats (oral dose 10 mg/kg), the response vs control in vivo at 10 mg/kg turned out to be 41 ± 2.7% and the “Urine Glucose Excretion (g/0-4 hr)” value was found to be 0.276 ± 0.032 g/0-4 hr. In the assay on db/db mice, the “24-hr Blood Glucose AUC vs Vehicle (%)” value was 55.0 ± 4.6%.
